According to patent publication US11400059B2, “Treatment of pain and/or pain related symptoms associated with dysmenorrhea” (ALYRA BIOTECH PTY LTD, priority 2017, dated 2022):

Legend:
[1] = molecular target: T1, Human Dectin-1a (Homo sapiens, UniProt Q9BXN2); test: Human CLR antagonist screening, NF-κB SEAP reporter in HEK293 cells; type: cell-based; conditions: antagonist mode, Ami 1 μM
T1 construct: expressed in transfected cells; host or cells: HEK293
T1 sequence (Q9BXN2 1-247): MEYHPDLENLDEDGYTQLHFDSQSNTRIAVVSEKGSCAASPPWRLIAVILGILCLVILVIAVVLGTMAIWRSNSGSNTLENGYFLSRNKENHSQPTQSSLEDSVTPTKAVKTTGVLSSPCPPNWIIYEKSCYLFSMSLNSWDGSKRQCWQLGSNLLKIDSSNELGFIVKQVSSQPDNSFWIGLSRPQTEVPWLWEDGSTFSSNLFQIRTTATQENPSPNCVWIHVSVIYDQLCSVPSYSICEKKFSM
Description: (§1) Toll-Like Receptor (TLR), NOD-Like Receptor (NLR) and C-Type Lectin Receptor (CLR) stimulation were tested by assessing NF-κB activation in HEK293 cells expressing a given TLR, NLR or CLR. The activity of the test articles was tested at one concentration and compared to control ligands. These steps were performed in triplicate. hDectin-1a and hDectin-1b: WGP Soluble (0-glucan from S. cerevisiae) at 10 ng/mL Antagonist: 5 ng/mL. Curdlan at 100 μg/mL. Antagonist: 100 μg/mL. Zymosan Depleted (hot alkali treated S. cerevisiae) at 5 μg/mL Antagonist: 3 μg/mL. In a 96-well plate (200 μL total volume) containing the appropriate cells (50,000-75,000 cells/well), 20 μL of the test article or the positive control ligand was added to the wells. For the antagonist assay, the test article was incubated with the cells, at 37° C. with 5% CO2, for 30 minutes prior to the addition of the positive control ligand to the wells. The media added to the wells was designed for the detection of NF-κB induced SEAP expression. After a 16-24 hr incubation the optical density (OD) was read at 650 nm on a Molecular Devices SpectraMax 340PC absorbance detector. Fold induction (ratio of average induced value to average non-induced value) was determined for each TLR, NOD1, NOD2, Dectin-1a, Dectin-1b.

[2] = molecular target: T2, Human Dectin-1b (Homo sapiens, UniProt Q9BXN2); test: as above; type: cell-based; conditions: antagonist mode, Ami 1 μM
T2 construct: expressed in transfected cells; host or cells: HEK293
T2 sequence (Q9BXN2 1-201 isoform Q9BXN2-2): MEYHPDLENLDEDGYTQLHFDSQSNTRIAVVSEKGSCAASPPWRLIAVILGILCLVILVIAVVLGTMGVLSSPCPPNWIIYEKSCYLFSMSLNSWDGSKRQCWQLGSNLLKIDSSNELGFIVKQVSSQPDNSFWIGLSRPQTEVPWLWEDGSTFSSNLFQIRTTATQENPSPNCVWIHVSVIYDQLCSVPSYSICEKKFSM
Description: as §1

CN(C)CCC=C1c2ccccc2CCc2ccccc21 [Amitriptyline]
Fold Induction ([1]; +Curdlan 100 μg/mL, No Sample 5, Control− 1): slight inhibitory effect
Fold Induction ([1]; +Curdlan 100 μg/mL, No Sample 5, Control− 1, listed as Ami): 4
Fold Induction ([1]; +WGP Soluble 5 ng/mL, No Sample 8, Control− 1): 8
Fold Induction ([1]; +Zymosan Depleted 3 μg/mL, No Sample 6, Control− 1): slight inhibitory effect
Fold Induction ([1]; +Zymosan Depleted 3 μg/mL, No Sample 6, Control− 1, listed as Ami): 4
Fold Induction ([2]; +Curdlan 100 μg/mL, No Sample 4, Control− 1): 4
Fold Induction ([2]; +WGP Soluble 5 ng/mL, No Sample 1, Control− 1): 1
Fold Induction ([2]; +Zymosan Depleted 3 μg/mL, No Sample 7, Control− 1): slight inhibitory effect
Fold Induction ([2]; +Zymosan Depleted 3 μg/mL, No Sample 7, Control− 1, listed as Ami): 6
